Test results from ChEMBL document CHEMBL1201862, “PubChem BioAssay data set” (2004).
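Step 1: Grow cells in 96-well plates. Step 2: Expose to compound for 48 hours at 5 concentrations. Step 3: Interpolate endpoints linearly; if unreached, use highest concentration. At the GI50, growth is halved.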 Calls of active or inactive are those of the source. Cut-off read from the data, not from the text of the source: active = GI50 up to about 1.1 µM and inactive = higher.

Tests used:
Test in all cases: NCI tumour cell line growth inhibition, 48 h
MOLT-4 = system: MOLT-4
SF-295 = system: SF-295
U-251 = system: U-251
NCI-H522 = system: NCI-H522
M14 = system: M14
MDA-MB-435 = system: MDA-MB-435
UACC-62 = system: UACC-62
HT-29 = system: HT-29
HCT-15 = system: HCT-15
KM12 = system: KM12
NCI/ADR-RES = system: NCI/ADR-RES
TK-10 = system: TK-10
786-0 = system: 786-0
MDA-N = system: MDA-N
A498 = system: A498
SR = system: SR
OVCAR-4 = system: OVCAR-4
DU-145 = system: DU-145
Hs-578T = system: Hs-578T
PC-3 = system: PC-3
OVCAR-5 = system: OVCAR-5
SK-MEL-28 = system: SK-MEL-28
K562 = system: K562
EKVX = system: EKVX
HOP-62 = system: HOP-62
RPMI-8226 = system: RPMI-8226
RXF 393 = system: RXF 393
BT-549 = system: BT-549
HL-60 = system: HL-60
ACHN = system: ACHN
LOX IMVI = system: LOX IMVI
HCT-116 = system: HCT-116
A549 = system: A549
Malme-3M = system: Malme-3M
OVCAR-8 = system: OVCAR-8
T47D = system: T47D
COLO 205 = system: COLO 205
IGROV-1 = system: IGROV-1
OVCAR-3 = system: OVCAR-3
CAKI-1 = system: CAKI-1
SK-MEL-2 = system: SK-MEL-2
MDA-MB-231 = system: MDA-MB-231
SNB-19 = system: SNB-19
UACC-257 = system: UACC-257
NCI-H226 = system: NCI-H226
UO-31 = system: UO-31
NCI-H23 = system: NCI-H23
CCRF-CEM = system: CCRF-CEM
SK-MEL-5 = system: SK-MEL-5
SW-620 = system: SW-620
SK-OV-3 = system: SK-OV-3
MCF7 = system: MCF7
SNB-75 = system: SNB-75
SN12C = system: SN12C
SF-268 = system: SF-268
HOP-92 = system: HOP-92
NCI-H460 = system: NCI-H460
SF-539 = system: SF-539
HCC 2998 = system: HCC 2998

## O=CN1CCN(CC(O)CN2CCCCC2)CC1 (stereo not drawn)
MOLT-4
  GI50: > 100 µM (inactive)
SF-295
  GI50: > 100 µM (inactive)
U-251
  GI50: > 100 µM (inactive)
NCI-H522
  GI50: > 100 µM (inactive)
M14
  GI50: > 100 µM (inactive)
MDA-MB-435
  GI50: > 100 µM (inactive)
UACC-62
  GI50: > 100 µM (inactive)
HT-29
  GI50: > 100 µM (inactive)
HCT-15
  GI50: > 100 µM
KM12
  GI50: > 100 µM (inactive)
NCI/ADR-RES
  GI50: > 100 µM (inactive)
TK-10
  GI50: > 100 µM (inactive)
786-0
  GI50: > 100 µM (inactive)
MDA-N
  GI50: > 100 µM (inactive)
A498
  GI50: > 100 µM (inactive)
SR
  GI50: > 100 µM (inactive)
OVCAR-4
  GI50: > 100 µM (inactive)
DU-145
  GI50: > 100 µM (inactive)
Hs-578T
  GI50: > 100 µM (inactive)
PC-3
  GI50: > 100 µM (inactive)
OVCAR-5
  GI50: > 100 µM (inactive)
SK-MEL-28
  GI50: > 100 µM (inactive)
K562
  GI50: > 100 µM (inactive)
EKVX
  GI50: > 100 µM (inactive)
HOP-62
  GI50: > 100 µM (inactive)
RPMI-8226
  GI50: > 100 µM (inactive)
RXF 393
  GI50: > 100 µM (inactive)
BT-549
  GI50: > 100 µM (inactive)
HL-60
  GI50: > 100 µM (inactive)
ACHN
  GI50: > 100 µM (inactive)
LOX IMVI
  GI50: > 100 µM (inactive)
HCT-116
  GI50: > 100 µM (inactive)
A549
  GI50: > 100 µM (inactive)
Malme-3M
  GI50: > 100 µM (inactive)
OVCAR-8
  GI50: > 100 µM (inactive)
T47D
  GI50: > 100 µM (inactive)
COLO 205
  GI50: > 100 µM (inactive)
IGROV-1
  GI50: > 100 µM (inactive)
OVCAR-3
  GI50: > 100 µM (inactive)
CAKI-1
  GI50: > 100 µM (inactive)
SK-MEL-2
  GI50: > 100 µM (inactive)
MDA-MB-231
  GI50: > 100 µM (inactive)
SNB-19
  GI50: > 100 µM (inactive)
UACC-257
  GI50: > 100 µM (inactive)
NCI-H226
  GI50: > 100 µM (inactive)
UO-31
  GI50: > 100 µM (inactive)
NCI-H23
  GI50: > 100 µM (inactive)
CCRF-CEM
  GI50: > 100 µM (inactive)
SK-MEL-5
  GI50: > 100 µM (inactive)
SW-620
  GI50: > 100 µM (inactive)
SK-OV-3
  GI50: > 100 µM (inactive)
MCF7
  GI50: > 100 µM (inactive)
SNB-75
  GI50: > 100 µM (inactive)
SN12C
  GI50: > 100 µM (inactive)
SF-268
  GI50: > 100 µM (inactive)

## Cc1n[nH]c(=O)n1N1C(=O)c2ccccc2C1=O
MOLT-4
  GI50: > 100 µM (inactive)
SF-295
  GI50: > 100 µM (inactive)
U-251
  GI50: > 100 µM (inactive)
HOP-92
  GI50: > 100 µM (inactive)
M14
  GI50: > 100 µM (inactive)
MDA-MB-435
  GI50: > 100 µM (inactive)
UACC-62
  GI50: > 100 µM (inactive)
HT-29
  GI50: > 100 µM (inactive)
HCT-15
  GI50: > 100 µM
KM12
  GI50: > 100 µM (inactive)
NCI/ADR-RES
  GI50: > 100 µM (inactive)
TK-10
  GI50: > 100 µM (inactive)
786-0
  GI50: > 100 µM (inactive)
MDA-N
  GI50: > 100 µM (inactive)
A498
  GI50: > 100 µM (inactive)
SR
  GI50: > 100 µM (inactive)
OVCAR-4
  GI50: > 100 µM (inactive)
DU-145
  GI50: > 100 µM (inactive)
Hs-578T
  GI50: > 100 µM (inactive)
PC-3
  GI50: > 100 µM (inactive)
OVCAR-5
  GI50: > 100 µM (inactive)
SK-MEL-28
  GI50: > 100 µM (inactive)
NCI-H460
  GI50: > 100 µM (inactive)
K562
  GI50: > 100 µM (inactive)
EKVX
  GI50: > 100 µM (inactive)
HOP-62
  GI50: > 100 µM (inactive)
BT-549
  GI50: > 100 µM (inactive)
ACHN
  GI50: > 100 µM (inactive)
LOX IMVI
  GI50: > 100 µM (inactive)
SF-539
  GI50: > 100 µM (inactive)
HCT-116
  GI50: > 100 µM (inactive)
A549
  GI50: > 100 µM (inactive)
Malme-3M
  GI50: > 100 µM (inactive)
OVCAR-8
  GI50: > 100 µM (inactive)
T47D
  GI50: > 100 µM (inactive)
COLO 205
  GI50: > 100 µM (inactive)
IGROV-1
  GI50: > 100 µM (inactive)
OVCAR-3
  GI50: > 100 µM (inactive)
CAKI-1
  GI50: > 100 µM (inactive)
HCC 2998
  GI50: > 100 µM (inactive)
SK-MEL-2
  GI50: > 100 µM (inactive)
MDA-MB-231
  GI50: > 100 µM (inactive)
SNB-19
  GI50: > 100 µM (inactive)
UACC-257
  GI50: > 100 µM (inactive)
NCI-H226
  GI50: > 100 µM (inactive)
UO-31
  GI50: > 100 µM (inactive)
NCI-H23
  GI50: > 100 µM (inactive)
CCRF-CEM
  GI50: > 100 µM (inactive)
SK-MEL-5
  GI50: > 100 µM (inactive)
SW-620
  GI50: > 100 µM (inactive)
MCF7
  GI50: > 100 µM (inactive)
SNB-75
  GI50: 26.4 µM (inactive)
SN12C
  GI50: > 100 µM (inactive)

## CCOC(=O)[C@H](C)OC(=O)[C@@](C)(NC(=O)c1ccccc1C(=O)OC)[C@@H]1NC=C(C(=O)OC)CS1
MOLT-4
  GI50: 41.8 µM (inactive)
SF-295
  GI50: > 100 µM (inactive)
U-251
  GI50: > 100 µM (inactive)
NCI-H522
  GI50: > 100 µM (inactive)
M14
  GI50: > 100 µM (inactive)
MDA-MB-435
  GI50: 27.6 µM (inactive)
UACC-62
  GI50: 76 µM (inactive)
HT-29
  GI50: > 100 µM (inactive)
HCT-15
  GI50: > 100 µM
KM12
  GI50: > 100 µM (inactive)
NCI/ADR-RES
  GI50: > 100 µM (inactive)
TK-10
  GI50: > 100 µM (inactive)
786-0
  GI50: > 100 µM (inactive)
MDA-N
  GI50: 21.9 µM (inactive)
A498
  GI50: > 100 µM (inactive)
SR
  GI50: 20.4 µM (inactive)
OVCAR-4
  GI50: > 100 µM (inactive)
DU-145
  GI50: > 100 µM (inactive)
Hs-578T
  GI50: > 100 µM (inactive)
PC-3
  GI50: > 100 µM (inactive)
OVCAR-5
  GI50: > 100 µM (inactive)
SK-MEL-28
  GI50: > 100 µM (inactive)
NCI-H460
  GI50: 80.4 µM (inactive)
K562
  GI50: 36.5 µM (inactive)
EKVX
  GI50: > 100 µM (inactive)
HOP-62
  GI50: > 100 µM (inactive)
RPMI-8226
  GI50: 38.1 µM (inactive)
RXF 393
  GI50: 97.9 µM (inactive)
BT-549
  GI50: > 100 µM (inactive)
ACHN
  GI50: > 100 µM (inactive)
HCT-116
  GI50: > 100 µM (inactive)
A549
  GI50: > 100 µM (inactive)
Malme-3M
  GI50: 97.3 µM (inactive)
OVCAR-8
  GI50: > 100 µM (inactive)
T47D
  GI50: 91.2 µM (inactive)
COLO 205
  GI50: > 100 µM (inactive)
IGROV-1
  GI50: 80 µM (inactive)
OVCAR-3
  GI50: > 100 µM (inactive)
CAKI-1
  GI50: > 100 µM (inactive)
HCC 2998
  GI50: > 100 µM (inactive)
SK-MEL-2
  GI50: > 100 µM (inactive)
MDA-MB-231
  GI50: > 100 µM (inactive)
SNB-19
  GI50: > 100 µM (inactive)
UACC-257
  GI50: > 100 µM (inactive)
NCI-H226
  GI50: > 100 µM (inactive)
UO-31
  GI50: > 100 µM (inactive)
NCI-H23
  GI50: > 100 µM (inactive)
CCRF-CEM
  GI50: 20.3 µM (inactive)
SK-MEL-5
  GI50: 74.1 µM (inactive)
SW-620
  GI50: > 100 µM (inactive)
SK-OV-3
  GI50: > 100 µM (inactive)
MCF7
  GI50: 79.1 µM (inactive)
SNB-75
  GI50: 25.4 µM (inactive)
SN12C
  GI50: > 100 µM (inactive)
SF-268
  GI50: > 100 µM (inactive)
